From patent US20240208961A1, “EIF4E INHIBITORS AND USES THEREOF” (PIC Therapeutics, Inc., priority 2022, published 2024)
Several values for one entry are separate records, joined by “and”; a condition that tells them apart may be missing. Equal values may be shown once. Read-outs that look alike come from different tables or passages of the source.

Key:
[1] = Pharmacokinetic studies of certain compounds in female Balb/c mice (Example 5); format: in vivo
How it was run: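 Female Balb/c mice (N=9) were fasted overnight and given compound PO as a suspension in 1% CMC/0.2% Tween 80 or IV in 5% DMSO/5% Solutol HS15/90% saline. Facial-vein plasma was taken from 0.083 to 24 h and assayed by LC-MS. Parameters are non-compartmental, and F was based on AUCINF or AUClast.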

[2] = tested on: ZR-75-1; assay: Cell viability assay, adherent cell line, 5 day Alamar Blue (Example 8): ZR-75-1; format: cell-based; conditions: Homo sapiens, 120 h, ZR-75-1, Breast Cancer Cell Viability
[3] = I-29 IV 1.48 mg/kg, 4 hr, BQL = below quantifiable limit of 3.00 ng/mL
[4] = I-29 IV 1.48 mg/kg, 8 hr, BQL = below quantifiable limit of 3.00 ng/mL
[5] = I-29 IV 1.48 mg/kg, 24 hr, BQL = below quantifiable limit of 3.00 ng/mL
[6] = I-29 PO 23.8 mg/kg, 24 hr, BQL = below quantifiable limit of 3.00 ng/mL
[7] = mouse, plasma, I-29 IV 1.48 mg/kg
[8] = mouse, plasma, I-29 PO 23.8 mg/kg

## CC(C)Cc1sc(Nc2ncc(-c3cccs3)cc2C(=O)O)nc1C1CCC(F)(F)CC1 [Compound I-29]
[1]; I-29 IV 1.48 mg/kg, 0.083 hr, 1.48 mg/kg
  Plasma concentration Individual: 641 ng/mL and 603 ng/mL
[1]; I-29 IV 1.48 mg/kg, 0.25 hr, 1.48 mg/kg
  Plasma concentration Individual: 121 ng/mL and 162 ng/mL and 336 ng/mL
[1]; I-29 IV 1.48 mg/kg, 0.5 hr, 1.48 mg/kg
  Plasma concentration Individual: 71.2 ng/mL and 51.0 ng/mL
[1]; I-29 IV 1.48 mg/kg, 1 hr, 1.48 mg/kg
  Plasma concentration Individual: 15.9 ng/mL and 81.1 ng/mL and 29.6 ng/mL
[1]; I-29 IV 1.48 mg/kg, 2 hr, 1.48 mg/kg
  Plasma concentration Individual: 3.54 ng/mL and 4.97 ng/mL and 7.24 ng/mL
[1]; [3]
  Plasma concentration Individual: BQL
  Plasma concentration Mean: BQL
[1]; [4]
  Plasma concentration Individual: BQL
  Plasma concentration Mean: BQL
[1]; [5]
  Plasma concentration Individual: BQL
  Plasma concentration Mean: BQL
[1]; I-29 PO 23.8 mg/kg vs IV 1.48 mg/kg
  F: 67.3%
[1]; I-29 PO 23.8 mg/kg, 0.083 hr, 23.8 mg/kg
  Plasma concentration Individual: 39.6 ng/mL and 53.6 ng/mL
[1]; I-29 PO 23.8 mg/kg, 0.25 hr, 23.8 mg/kg
  Plasma concentration Individual: 147 ng/mL and 146 ng/mL
[1]; I-29 PO 23.8 mg/kg, 0.5 hr, 23.8 mg/kg
  Plasma concentration Individual: 344 ng/mL and 464 ng/mL
[1]; I-29 PO 23.8 mg/kg, 1 hr, 23.8 mg/kg
  Plasma concentration Individual: 237 ng/mL and 618 ng/mL and 703 ng/mL
[1]; I-29 PO 23.8 mg/kg, 2 hr, 23.8 mg/kg
  Plasma concentration Individual: 620 ng/mL and 640 ng/mL
[1]; I-29 PO 23.8 mg/kg, 4 hr, 23.8 mg/kg
  Plasma concentration Individual: 147 ng/mL and 218 ng/mL
[1]; I-29 PO 23.8 mg/kg, 8 hr, 23.8 mg/kg
  Plasma concentration Individual: 106 ng/mL and 75.9 ng/mL
[1]; [6]
  Plasma concentration Individual: BQL
  Plasma concentration Mean: BQL
[1]; female, Balb/c, mouse, plasma, iv, 1.48 mg/kg, I-29 IV 1.48 mg/kg, 0.083 hr, read-out: Plasma concentration Individual
  concentration at 0.083 hr: 558 ng/mL
[1]; female, Balb/c, mouse, plasma, iv, 1.48 mg/kg, I-29 IV 1.48 mg/kg, 0.083 hr, read-out: Plasma concentration Mean
  concentration at 0.083 hr: 601 ng/mL
[1]; female, Balb/c, mouse, plasma, iv, 1.48 mg/kg, I-29 IV 1.48 mg/kg, 0.25 hr, read-out: Plasma concentration Mean
  concentration at 0.25 hr: 206 ng/mL
[1]; female, Balb/c, mouse, plasma, iv, 1.48 mg/kg, I-29 IV 1.48 mg/kg, 0.5 hr, read-out: Plasma concentration Individual
  concentration at 0.5 h: 95.5 ng/mL
[1]; female, Balb/c, mouse, plasma, iv, 1.48 mg/kg, I-29 IV 1.48 mg/kg, 0.5 hr, read-out: Plasma concentration Mean
  concentration at 0.5 h: 72.6 ng/mL
[1]; female, Balb/c, mouse, plasma, iv, 1.48 mg/kg, I-29 IV 1.48 mg/kg, 1 hr, read-out: Plasma concentration Mean
  concentration at 1 h: 42.2 ng/mL
[1]; female, Balb/c, mouse, plasma, iv, 1.48 mg/kg, I-29 IV 1.48 mg/kg, 2 hr, read-out: Plasma concentration Mean
  concentration at 2 hr: 5.25 ng/mL
[1]; female, Balb/c, mouse, plasma, po, 23.8 mg/kg, I-29 PO 23.8 mg/kg, 0.083 hr, read-out: Plasma concentration Individual
  concentration at 0.083 hr: 31.6 ng/mL
[1]; female, Balb/c, mouse, plasma, po, 23.8 mg/kg, I-29 PO 23.8 mg/kg, 0.083 hr, read-out: Plasma concentration Mean
  concentration at 0.083 hr: 41.6 ng/mL
[1]; female, Balb/c, mouse, plasma, po, 23.8 mg/kg, I-29 PO 23.8 mg/kg, 0.25 hr, read-out: Plasma concentration Individual
  concentration at 0.25 hr: 160 ng/mL
[1]; female, Balb/c, mouse, plasma, po, 23.8 mg/kg, I-29 PO 23.8 mg/kg, 0.25 hr, read-out: Plasma concentration Mean
  concentration at 0.25 hr: 151 ng/mL
[1]; female, Balb/c, mouse, plasma, po, 23.8 mg/kg, I-29 PO 23.8 mg/kg, 0.5 hr, read-out: Plasma concentration Individual
  concentration at 0.5 hr: 305 ng/mL
[1]; female, Balb/c, mouse, plasma, po, 23.8 mg/kg, I-29 PO 23.8 mg/kg, 0.5 hr, read-out: Plasma concentration Mean
  concentration at 0.5 hr: 371 ng/mL
[1]; female, Balb/c, mouse, plasma, po, 23.8 mg/kg, I-29 PO 23.8 mg/kg, 1 hr, read-out: Plasma concentration Mean
  concentration at 1 hr: 519 ng/mL
[1]; female, Balb/c, mouse, plasma, po, 23.8 mg/kg, I-29 PO 23.8 mg/kg, 2 hr, read-out: Plasma concentration Individual
  concentration at 2 hr: 554 ng/mL
[1]; female, Balb/c, mouse, plasma, po, 23.8 mg/kg, I-29 PO 23.8 mg/kg, 2 hr, read-out: Plasma concentration Mean
  concentration at 2 hr: 605 ng/mL
[1]; female, Balb/c, mouse, plasma, po, 23.8 mg/kg, I-29 PO 23.8 mg/kg, 4 hr, read-out: Plasma concentration Individual
  concentration at 4 hr: 187 ng/mL
[1]; female, Balb/c, mouse, plasma, po, 23.8 mg/kg, I-29 PO 23.8 mg/kg, 4 hr, read-out: Plasma concentration Mean
  concentration at 4 hr: 184 ng/mL
[1]; female, Balb/c, mouse, plasma, po, 23.8 mg/kg, I-29 PO 23.8 mg/kg, 8 hr, read-out: Plasma concentration Individual
  concentration at 8 hr: 57.1 ng/mL
[1]; female, Balb/c, mouse, plasma, po, 23.8 mg/kg, I-29 PO 23.8 mg/kg, 8 hr, read-out: Plasma concentration Mean
  concentration at 8 hr: 79.7 ng/mL
[1]; [7]
  AUC(0-inf): 225 ng·h/mL
  AUC(0-t): 222 ng·h/mL
  C0: 1020 ng/mL
  MRT inf: 0.33 h
  MRT last: 0.304 h
  clearance: 110 mL/min/kg
  half-life: 0.352 h
[1]; mouse, plasma, I-29 IV 1.48 mg/kg, read-out: Vss
  Vd: 2.18 L/kg
[1]; [8]
  AUC(0-inf): 2430 ng·h/mL
  AUC(0-t): 2180 ng·h/mL
  Cmax: 605 ng/mL
  MRT inf: 3.51 h
  MRT last: 2.64 h
  Tmax: 2 h
  half-life: 2.17 h
[2]
  IC50: ≤ 1000 nM
